The values below come from paper PMC5471267, “Novel regulatory mechanism of serine biosynthesis associated with 3-phosphoglycerate dehydrogenase in Arabidopsis thaliana” (Scientific Reports, 2017).

What all share (assay): 3-PGA oxidation, NADH absorbance at […] nm; Hill fit
One experiment concerns the target T1, AtPGDH3 (Arabidopsis thaliana, UniProt Q9LT69).
T1 construct: gene PGDH3; mature enzyme, predicted chloroplast transit peptide removed; eXact tag cleaved (tag-free); E. coli BL21 CodonPlus(DE3)-RIL; homotetramer
T1 sequence (Q9LT69 44-588 limits assumed): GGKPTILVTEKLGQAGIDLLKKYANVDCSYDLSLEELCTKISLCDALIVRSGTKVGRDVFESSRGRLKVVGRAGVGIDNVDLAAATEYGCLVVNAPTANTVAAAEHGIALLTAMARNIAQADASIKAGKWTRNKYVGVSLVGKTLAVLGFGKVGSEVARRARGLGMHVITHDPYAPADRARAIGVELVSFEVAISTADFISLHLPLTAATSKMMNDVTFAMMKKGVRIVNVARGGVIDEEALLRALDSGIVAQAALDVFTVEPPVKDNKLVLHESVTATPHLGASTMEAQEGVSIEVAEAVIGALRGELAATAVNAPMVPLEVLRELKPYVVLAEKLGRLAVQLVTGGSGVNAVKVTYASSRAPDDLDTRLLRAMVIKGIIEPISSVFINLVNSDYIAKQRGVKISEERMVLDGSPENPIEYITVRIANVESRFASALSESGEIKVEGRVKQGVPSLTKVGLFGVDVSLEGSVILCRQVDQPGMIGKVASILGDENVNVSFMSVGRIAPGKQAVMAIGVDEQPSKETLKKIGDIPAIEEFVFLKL
The format is biochemical.

The target of a further experiment is T2, AtPGDH1 (Arabidopsis thaliana, UniProt O49485).
T2 construct: gene PGDH1; mature enzyme, predicted chloroplast transit peptide removed; eXact tag cleaved (tag-free); E. coli BL21 CodonPlus(DE3)-RIL; homotetramer
T2 sequence (O49485 59-603 limits assumed): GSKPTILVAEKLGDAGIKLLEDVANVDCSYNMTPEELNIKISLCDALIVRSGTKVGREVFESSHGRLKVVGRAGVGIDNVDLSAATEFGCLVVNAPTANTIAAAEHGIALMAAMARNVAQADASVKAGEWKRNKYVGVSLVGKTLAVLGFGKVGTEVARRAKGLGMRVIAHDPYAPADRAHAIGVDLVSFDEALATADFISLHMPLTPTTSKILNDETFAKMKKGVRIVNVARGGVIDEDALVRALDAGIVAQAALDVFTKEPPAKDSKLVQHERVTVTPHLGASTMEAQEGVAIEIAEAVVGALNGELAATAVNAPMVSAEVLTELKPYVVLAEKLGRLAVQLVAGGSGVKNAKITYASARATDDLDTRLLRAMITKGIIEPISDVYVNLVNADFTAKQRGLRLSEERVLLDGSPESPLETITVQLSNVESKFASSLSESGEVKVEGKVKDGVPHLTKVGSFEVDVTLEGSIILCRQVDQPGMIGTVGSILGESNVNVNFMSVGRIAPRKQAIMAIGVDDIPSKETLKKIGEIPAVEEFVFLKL
The format is biochemical.

Another experiment deals with T3, AtPGDH-N2/C1.
T3 construct: gene PGDH2; one fused polypeptide: N-terminal half (catalytic domain) of AtPGDH2 + C-terminal half (ASB and ACT domains) of AtPGDH1; tag-free, E. coli; homotetramer
The format is biochemical, Arabidopsis thaliana. The note with it: activator, cooperative; 10 mM 3-PGA, 1 mM NAD+, 0.1 M NaCl, pH 9.0, 25 °C.

The next experiment concerns T4, AtPGDH-N1/C2.
T4 construct: gene PGDH1; one fused polypeptide: N-terminal half (catalytic domain) of AtPGDH1 + C-terminal half (ASB and ACT domains) of AtPGDH2; tag-free, E. coli; mainly homotetramer, also multimers up to 20 subunits
Type of experiment: biochemical, Arabidopsis thaliana. The note with it: activator, cooperative; 10 mM 3-PGA, 1 mM NAD+, 0.1 M NaCl, pH 9.0, 25 °C.

As usually defined, the EC50 is the concentration that produces a half-maximal response. The low end stands for a more potent agent, the high end for a less potent agent. For `C[C@H](N)C(=O)O` [L-alanine], the EC50 on AtPGDH3 stood at 4.9 ± 0.2 mM; at AtPGDH1 it was 5.3 ± 0.2 mM; in the experiment with AtPGDH-N2/C1, 2.6 ± 0.1 mM; in the experiment with AtPGDH-N1/C2 it was 3.7 ± 0.1 mM.
